Source: patent publication US7169573B2, “Method for monitoring coagulability and hypercoagulable states” (Oklahoma Medical Research Foundation, priority 2001, dated 2007)
Several values for one entry are separate records, joined by “and”; a condition that tells them apart may be missing. Identical values can stand only once.

What was measured:
[1] = test system: soluble endothelial protein C receptor (sEPCR); experiment: Plasma soluble EPCR level by monoclonal antibody-based ELISA in subjects on anticoagulant therapy; format: in vivo, human; details: for [sEPCR]: individual patients taking Sintrom, plasma, ELISA
Experimental: Soluble EPCR is generated in vitro by metalloproteinase activity induced by thrombin and some inflammatory mediators (Xu et al., 2000). Thus, the inventors chose to determine whether soluble EPCR levels reflected in vivo thrombin generation. To evaluate this, the soluble EPCR levels were determined in patients on oral anticoagulant therapy and compared with soluble EPCR levels found in a normal, apparently healthy adult population (FIGS. 1A and 1B). These samples were obtained from collaborators in France (Dr. M. Grimeaux, Serbio/Diagnostica Stago). The soluble EPCR levels are assayed using a monoclonal antibody-based enzyme-linked immunosorbent assay (ELISA) (U.S. Pat. No. 5,804,392, incorporated by reference herein). […] Previscan is a major oral anticoagulant used in France and Germany. […] The half-life for factor VII is only 3–5 hours, whereas that for prothrombin is 60–100 hrs.
To further evaluate the relationship between plasma sEPCR levels and anticoagulant therapy, samples were obtained from a normal adult population and from patients on intravenous unfractionated heparin therapy (FIG. 3). The data shown in FIGS. 3, 4A, 4B and 5 were obtained from samples contributed by a collaborator in Italy (Dr. Armando D'Angelo, Scientific Institute H. S. Rafeale, Milan, Italy).
Plasma was stored at −80° C. for determination of sEPCR levels by ELISA.

[2] = test system: prothrombin fragment 1+2 (F1+2)
Experimental: Blood was taken before the start of anticoagulation and sEPCR levels were determined by ELISA over the course of their therapy. There were 3 patients with atrial fibrillation and one patient each with dilative cardiomyopathy, mitral valve disease, atrial fibrillation+stroke, and deep vein thrombosis (DVT).

[3] = cited from earlier work
[4] = cited from earlier work; remark: listed apart in the source
[5] = test system: INR; experiment: INR (prothrombin time based) in patients on oral anticoagulant; format: in vivo, human; details: individual patients taking Sintrom, one plasma sample per line

4-hydroxycoumarin [Warfarin]
plasma sEPCR levels during Warfarin treatment period ([1]; 6 normal adult subjects, Warfarin 7 days, FIG. 4A): declined
lag time before sEPCR levels declined after initiation of Warfarin ([1]; normal adult subjects): 24 to 48 h
time after cessation of Warfarin until sEPCR levels began to increase ([1]; normal adult subjects): 24 to 48 h
F1+2 level, % of initial values ([2]; healthy subjects, day 5 of Warfarin, P<0.05): 39%
F1+2 levels after initiation of Warfarin therapy ([2]; seven patients starting oral anticoagulation, FIG. 7): declined in most of the patients
intracranial bleeding, share of patients ([3]; during each year of therapy): 0.1–0.5%
major bleeding, share of people treated ([3]; during each year of therapy): 1–8%
Warfarin-induced skin necrosis, share of patients ([3]; in vivo): 0.01–0.1%
time to maximal blood levels ([4]; healthy volunteers, absorbed from the GI tract): 90 min
bioavailability ([4]; in vivo): excellent
onset ([4]; in vivo): 2 to 7 days

O=C1c2ccccc2C(=O)C1c1ccc(F)cc1 [Previscan]
half-life (in words) ([4]; in vivo): long half-life (days)

CC(=O)CC(c1ccc([N+](=O)[O-])cc1)c1c(O)c2ccccc2oc1=O (centres unmarked) [Sintrom]
[sEPCR] [1]: 369 ng/mL and 357 ng/mL and 198 ng/mL and 293 ng/mL
[sEPCR] ([1]; listed as SINTROM): 357 ng/ml and 131 ng/ml and 92 ng/ml and 127 ng/ml and 59 ng/ml and 61 ng/ml (2×) and 198 ng/ml and 171 ng/ml and 164 ng/ml and 56 ng/ml (2×) and 293 ng/ml and 172 ng/ml and 54 ng/ml and 94 ng/ml and 140 ng/ml and 135 ng/ml and 167 ng/ml and 369 ng/ml and 63 ng/ml
INR [5]: 2.0 and 2.6 and 3.3 and 3.6
INR ([5]; listed as SINTROM): 2.6 (2×) and 2.7 (2×) and 2.8 and 3.1 (2×) and 3.3 (2×) and 3.4 and 3.5 and 3.6 and 4.5 and >5.0 (4×) and 1.5 and 1.8 and 1.9 and 2.0
half-life ([4]; Sintrom): ~8.5 h
